The source of these data is ChEMBL document CHEMBL3813616, “Discovery of novel 7-azaindoles as PDK1 inhibitors” (Bioorg Med Chem Lett, 2016).

Molecules are shown by their SMILES.

The target in assay [1] is Tyrosine-protein kinase ZAP-70 (Homo sapiens) (UniProt P43403). Description: Inhibition of human ZAP70 (1 to 619 residues) assessed as enzyme activity at 1 uM using 33P ATP by radioactive filter binding assay. Further details: scale not given: the % may be the effect or the level left.
The target in assay [2] is Serine/threonine-protein kinase MARK1 (Homo sapiens) (UniProt Q9P0L2). Description: Inhibition of human MARK1 (2 to 795 residues) assessed as enzyme activity at 1 uM using 33P ATP by radioactive filter binding assay. Further details: scale not given: the % may be the effect or the level left.
Serine/threonine-protein kinase MARK1 (Homo sapiens), sequence (Q9P0L2 whole entry, looked up, the tested form may be a part): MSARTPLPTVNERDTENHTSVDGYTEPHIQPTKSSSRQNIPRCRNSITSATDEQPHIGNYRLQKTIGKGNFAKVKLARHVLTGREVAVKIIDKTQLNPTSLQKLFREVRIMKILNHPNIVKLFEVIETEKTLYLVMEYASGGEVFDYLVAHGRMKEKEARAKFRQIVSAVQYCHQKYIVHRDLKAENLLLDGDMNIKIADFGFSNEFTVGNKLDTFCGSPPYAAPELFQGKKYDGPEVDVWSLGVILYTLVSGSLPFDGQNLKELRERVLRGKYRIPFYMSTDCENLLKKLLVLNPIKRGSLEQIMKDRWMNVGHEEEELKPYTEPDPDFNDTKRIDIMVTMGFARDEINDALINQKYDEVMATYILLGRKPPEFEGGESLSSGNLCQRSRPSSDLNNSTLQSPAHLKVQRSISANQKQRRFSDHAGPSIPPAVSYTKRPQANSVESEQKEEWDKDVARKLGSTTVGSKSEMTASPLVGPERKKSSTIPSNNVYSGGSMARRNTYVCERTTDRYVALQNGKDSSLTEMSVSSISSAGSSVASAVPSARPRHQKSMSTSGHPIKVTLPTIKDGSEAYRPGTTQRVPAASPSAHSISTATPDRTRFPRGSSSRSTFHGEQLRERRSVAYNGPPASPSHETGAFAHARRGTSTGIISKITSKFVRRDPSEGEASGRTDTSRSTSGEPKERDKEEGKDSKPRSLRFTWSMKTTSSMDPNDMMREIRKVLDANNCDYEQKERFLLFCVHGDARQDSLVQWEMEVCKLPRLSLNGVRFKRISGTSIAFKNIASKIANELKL

Tyrosine-protein kinase ZAP-70 (Homo sapiens), sequence (P43403 whole entry, the tested form may be a part): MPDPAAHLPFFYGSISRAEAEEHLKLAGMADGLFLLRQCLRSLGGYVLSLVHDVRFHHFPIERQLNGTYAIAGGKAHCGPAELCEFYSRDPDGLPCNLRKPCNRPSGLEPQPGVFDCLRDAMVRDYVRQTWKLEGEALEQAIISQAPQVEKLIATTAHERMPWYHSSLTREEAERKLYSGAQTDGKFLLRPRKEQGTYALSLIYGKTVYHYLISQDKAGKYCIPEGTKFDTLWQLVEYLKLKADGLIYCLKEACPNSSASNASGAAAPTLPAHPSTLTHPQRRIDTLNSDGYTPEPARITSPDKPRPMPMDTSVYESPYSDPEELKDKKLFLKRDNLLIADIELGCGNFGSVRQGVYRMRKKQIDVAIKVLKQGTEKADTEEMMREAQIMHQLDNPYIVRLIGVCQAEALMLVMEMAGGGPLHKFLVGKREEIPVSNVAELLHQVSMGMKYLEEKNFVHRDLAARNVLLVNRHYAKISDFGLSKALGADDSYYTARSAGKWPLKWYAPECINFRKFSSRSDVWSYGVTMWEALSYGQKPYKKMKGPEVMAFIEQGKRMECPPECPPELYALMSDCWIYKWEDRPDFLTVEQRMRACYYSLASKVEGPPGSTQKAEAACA

For the compound `Nc1nccc(-c2c[nH]c3ncccc23)n1` [MERIOLIN 1], the Activity in assay [1] was -3%; in assay [2], -26%.
